Legend:
[1] = biological target: recombinant poly(ADP-ribose) polymerase 2 (PARP2); assay: PARP2 chemiluminescent assay; type: biochemical; settings: inhibition of PARP2 enzyme activity, chemiluminescence
MDA-MB-436 cells = assay: Growth inhibition assay against BRCA mutant human breast cancer MDA-MB-436 cell line (CCK-8); type: cell-based; settings: proliferation of MDA-MB-436 cells, 7 days
[2] = biological target: recombinant poly(ADP-ribose) polymerase 1 (PARP1) (Homo sapiens (Human), UniProt P09874)
Sequence of recombinant poly(ADP-ribose) polymerase 1 (PARP1) (P09874 whole entry): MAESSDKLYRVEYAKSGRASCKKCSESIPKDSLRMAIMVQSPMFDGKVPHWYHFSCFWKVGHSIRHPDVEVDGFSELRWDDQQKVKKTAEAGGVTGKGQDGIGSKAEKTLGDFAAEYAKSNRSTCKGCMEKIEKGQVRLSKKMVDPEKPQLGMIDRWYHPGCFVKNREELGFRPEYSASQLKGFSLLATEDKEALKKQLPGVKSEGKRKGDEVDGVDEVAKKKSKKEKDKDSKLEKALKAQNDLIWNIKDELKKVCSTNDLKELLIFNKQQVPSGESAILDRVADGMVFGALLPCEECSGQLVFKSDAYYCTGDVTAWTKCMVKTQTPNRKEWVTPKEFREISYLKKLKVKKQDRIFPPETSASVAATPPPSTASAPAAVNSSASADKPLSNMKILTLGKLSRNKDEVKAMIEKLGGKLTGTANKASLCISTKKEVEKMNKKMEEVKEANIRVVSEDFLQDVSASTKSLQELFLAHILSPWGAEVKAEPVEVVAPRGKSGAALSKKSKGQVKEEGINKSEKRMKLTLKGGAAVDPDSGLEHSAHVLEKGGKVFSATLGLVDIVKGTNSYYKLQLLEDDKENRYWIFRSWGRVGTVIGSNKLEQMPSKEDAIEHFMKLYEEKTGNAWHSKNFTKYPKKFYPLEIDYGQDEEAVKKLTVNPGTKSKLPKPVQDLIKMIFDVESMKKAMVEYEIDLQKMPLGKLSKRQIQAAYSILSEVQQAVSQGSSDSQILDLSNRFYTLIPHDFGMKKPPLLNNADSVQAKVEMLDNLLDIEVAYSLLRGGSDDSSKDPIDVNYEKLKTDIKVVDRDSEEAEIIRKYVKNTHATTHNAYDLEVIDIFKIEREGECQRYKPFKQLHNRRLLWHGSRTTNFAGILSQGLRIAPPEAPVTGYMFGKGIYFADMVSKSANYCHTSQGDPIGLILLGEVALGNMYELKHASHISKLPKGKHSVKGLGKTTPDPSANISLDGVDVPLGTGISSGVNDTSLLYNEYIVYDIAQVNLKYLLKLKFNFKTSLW

| IC50 [1] | IC50 (MDA-MB-436 cells; Homo sapiens, MDA-MB-436, […]) | IC50 [2] | IC50 (MDA-MB-436 cells) | SMILES |
| --- | --- | --- | --- | --- |
| 5780 nM | 4.66 nM | 0.77 nM |  | CNC(=O)c1ccc(N2CCN(Cc3ccc4c(c3)[nH]c(=O)c3nn(C)cc34)CC2)c(C)n1 [Example 69, 7-((4-(2-methyl-6-(methylcarbamoyl)pyridin-3-yl)piperazin-1-yl)methyl)-2-methyl-2,5-dihydro-4H-pyrazolo[3,4-c]quinolin-4-one] |
| 278 nM | 9.02 nM | 0.64 nM |  | CNC(=O)c1ccc(N2CCN(Cc3ccc4c([nH]c(=O)c5cn[nH]c54)c3F)CC2)c(C)n1 [Example 45, 7-((4-(2-methyl-6-(methylcarbamoyl)pyridin-3-yl)piperazin-1-yl)methyl)-6-fluoro-1,5-dihydro-4H-pyrazolo[4,3-c]quinolin-4-one] |
| > 10000 nM | 46.7 nM | 3.49 nM |  | CCNC(=O)c1ccc(N2CCN(Cc3ccc4c([nH]c(=O)n5ccnc45)c3F)CC2)c(F)n1 [Example 62, 8-((4-(2-fluoro-6-(ethylcarbamoyl)pyridin-3-yl)piperazin-1-yl)methyl)-7-fluoroimidazo[1,2-c]quinazolin-5(6H)-one] |
| 487 nM | 32 nM | 5.85 nM |  | CNC(=O)c1ccc(N2CCN(Cc3cc4[nH]c(=O)c5occc5c4cc3C)CC2)c(F)n1 [Example 104, 7-((4-(2-fluoro-6-(methylcarbamoyl)pyridin-3-yl)piperazin-1-yl)methyl)-8-methylfuro[2,3-c]quinolin-4(5H)-one] |
| 5450 nM | 52.6 nM | 2.73 nM |  | O=C(NC1CC1)c1ccc(N2CCN(Cc3ccc4c([nH]c(=O)n5ccnc45)c3F)CC2)c(F)n1 [Example 64, 8-((4-(2-fluoro-6-(cyclopropylcarbamoyl)pyridin-3-yl)piperazin-1-yl)methyl)-7-fluoroimidazo[1,2-c]quinazolin-5(6H)-one] |
| 1390 nM | 0.79 nM | 0.28 nM |  | CNC(=O)c1ccc(N2CCN(Cc3ccc4c([nH]c(=O)c5c(F)cnn54)c3F)CC2)c(Cl)n1 [Example 178, 7-((4-(2-chloro-6-(methylcarbamoyl)pyridin-3-yl)piperazin-1-yl)methyl)-3,6-difluoropyrazolo[1,5-a]quinoxalin-4(5H)-one] |
| 2420 nM | > 100 nM | 4.43 nM |  | CNC(=O)c1ccc(N2CCN(Cc3ccc4c(c3)[nH]c(=O)c3ncn(C)c34)CC2)c(C)n1 [Example 26, 7-((4-(2-methyl-6-(methylcarbamoyl)pyridin-3-yl)piperazin-1-yl)methyl)-1-methyl-1,5-dihydro-4H-imidazo[4,5-c]quinolin-4-one] |
| > 10000 nM | 12.1 nM | 0.68 nM |  | CNC(=O)c1ccc(N2CCN(C(C)c3ccc4c([nH]c(=O)c5c(C)cnn54)c3F)CC2)c(F)n1 (stereo not drawn) [Example 204, 6-fluoro-7-(1-(4-(2-fluoro-6-(methylcarbamoyl)pyridin-3-yl)piperazin-1-yl)ethyl)-3-methylpyrazolo[1,5-a]quinoxalin-4(5H)-one] |
| 636 nM | 11 nM | 3.3 nM |  | CNC(=O)c1ccc(N2CCN(Cc3ccc4c(c3)[nH]c(=O)c3c4cnn3C)CC2)c(C)n1 [Example 71, 7-((4-(2-methyl-6-(methylcarbamoyl)pyridin-3-yl)piperazin-1-yl)methyl)-3-methyl-3,5-dihydro-4H-pyrazolo[3,4-c]quinolin-4-one] |
| 1570 nM | 4.08 nM | 0.68 nM |  | CNC(=O)c1ccc(N2CCN(Cc3ccc4c([nH]c(=O)c5cncn54)c3F)CC2)c(Cl)n1 [Example 56, 7-((4-(2-chloro-6-(methylcarbamoyl)pyridin-3-yl)piperazin-1-yl)methyl)-6-fluoroimidazo[1,5-a]quinoxalin-4(5H)-one] |
| 683 nM | 23.6 nM | 1.87 nM |  | CNC(=O)c1ccc(N2CCN(Cc3cc4[nH]c(=O)n5nccc5c4cc3F)CC2)c(F)n1 [Example 120, 8-((4-(2-fluoro-6-(methylcarbamoyl)pyridin-3-yl)piperazin-1-yl)methyl)-9-fluoropyrazolo[1,5-c]quinazolin-5(6H)-one] |
| 648 nM | 5.85 nM | 0.52 nM |  | CNC(=O)c1ccc(N2CCN(Cc3cc(F)c4c(c3)[nH]c(=O)c3cncn34)CC2)c(Cl)n1 [Example 54, 7-((4-(2-chloro-6-(methylcarbamoyl)pyridin-3-yl)piperazin-1-yl)methyl)-9-fluoroimidazo[1,5-a]quinoxalin-4(5H)-one] |
| 1830 nM |  | 1.08 nM | 29 nM | CNC(=O)c1ccc(N2CCN(Cc3ccc4c([nH]c(=O)n5nccc45)c3F)CC2)c(C)n1 [Example 72, 8-((4-(2-methyl-6-(methylcarbamoyl)pyridin-3-yl)piperazin-1-yl)methyl)-7-fluoropyrazolo[1,5-c]quinazolin-5(6H)-one] |
| 17.9 nM | 1.11 nM | 0.16 nM |  | CNC(=O)c1ccc(N2CCN(Cc3ccc4c([nH]c(=O)c5c(Cl)c(C)nn54)c3F)CC2)c(F)n1 [Example 199, 6-fluoro-7-((4-(2-fluoro-6-(methylcarbamoyl)pyridin-3-yl)piperazin-1-yl)methyl)-2-methyl-3-chloropyrazolo[1,5-a]quinoxalin-4(5H)-one] |
| > 10000 nM | 53.7 nM | 3.86 nM |  | CCNC(=O)c1ccc(N2CCN(Cc3ccc4c([nH]c(=O)n5ccnc45)c3F)CC2)c(C)n1 [Example 63, 8-((4-(2-methyl-6-(ethylcarbamoyl)pyridin-3-yl)piperazin-1-yl)methyl)-7-fluoroimidazo[1,2-c]quinazolin-5(6H)-one] |
|  | 6.08 nM |  |  | Cc1cnn2c1c(=O)[nH]c1c(F)c(CN3CCN(c4ccc(C(=O)N[C@@H]5CCOC5)nc4F)CC3)ccc12 [Example 156, (R)-6-fluoro-7-((4-(2-fluoro-6-((tetrahydrofuran-3-yl)carbamoyl)pyridin-3-yl)piperazin-1-yl)methyl)-3-methylpyrazolo[1,5-a]quinoxalin-4(5H)-one] |

Further lines, the molecule ahead of its results:

| SMILES | IC50 [1] | IC50 (MDA-MB-436 cells; Homo sapiens, MDA-MB-436, […]) | IC50 [2] | IC50 (MDA-MB-436 cells) |
| --- | --- | --- | --- | --- |
| CNC(=O)c1ccc(N2CCN(Cc3ccc4c5c(c(=O)[nH]c4c3)CNC5)CC2)c(C)n1 [Example 74, 7-((4-(6-methylcarbamoyl-2-methylpyridin-3-yl)piperazin-1-yl)methyl)-1,2,3,5-tetrahydro-4H-pyrrolo[3,4-c]quinolin-4-one] | 2980 nM | 58.2 nM | 3.31 nM |  |
| CNC(=O)c1ccc(N2CCN(Cc3ccc4c(c3)[nH]c(=O)c3oncc34)CC2)c(C)n1 [Example 30, 7-((4-(2-methyl-6-(methylcarbamoyl)pyridin-3-yl)piperazin-1-yl)methyl)isoxazolo[5,4-c]quinolin-4(5H)-one] | > 10000 nM | > 100 nM | 138 nM |  |
| CNC(=O)c1ccc(N2CCN(Cc3ccc4c(c3)[nH]c(=O)c3c[nH]cc34)CC2)c(C)n1 [Example 34, 7-((4-(2-methyl-6-(methylcarbamoyl)pyridin-3-yl)piperazin-1-yl)methyl)-2,5-dihydro-4H-pyrrolo[3,4-c]quinolin-4-one] | 709 nM | 5.06 nM | 2.52 nM |  |
| CNC(=O)c1ccc(N2CCN(Cc3ccc4c(c3)[nH]c(=O)c3ocnc34)CC2)c(C)n1 [Example 14, 7-((4-(2-methyl-6-(methylcarbamoyl)pyridin-3-yl)piperazin-1-yl)methyl)oxazolo[5,4-c]quinolin-4(5H)-one] | > 10000 nM | 21.3 nM | 1.86 nM |  |
| CNC(=O)c1ccc(N2CCN(Cc3ccc4c(c3)[nH]c(=O)c3[nH]ccc34)CC2)c(C)n1 [Example 10, 7-((4-(2-methyl-6-(methylcarbamoyl)pyridin-3-yl)piperazin-1-yl)methyl)-3,5-dihydro-4H-pyrrolo[2,3-c]quinolin-4-one] | > 10000 nM | 15.5 nM | 8.24 nM |  |
| CNC(=O)c1ccc(N2CCN(Cc3ccc4c(c3)[nH]c(=O)c3ccoc34)CC2)cn1 [Example 118, 7-((4-(6-(methylcarbamoyl)pyridin-3-yl)piperazin-1-yl)methyl)furo[3,2-c]quinolin-4(5H)-one] | 273 nM | 1.56 nM | 0.53 nM |  |
| CNC(=O)c1ccc(N2CCN(Cc3cc(F)c4c(c3)[nH]c(=O)n3cc(C)nc43)CC2)c(C)n1 [Example 136, 8-((4-(2-methyl-6-(methylcarbamoyl)pyridin-3-yl)piperazin-1-yl)methyl)-2-methyl-10-fluoroimidazo[1,2-c]quinazolin-5(6H)-one] | 931 nM | 1.04 nM | 1.77 nM |  |
| CNC(=O)c1ccc(N2CCN(Cc3ccc4c5c(c(=O)[nH]c4c3)CN(C)C5)CC2)c(C)n1 [Example 75, 7-((4-(6-methylcarbamoyl-2-methylpyridin-3-yl)piperazin-1-yl)methyl)-2-methyl-1,2,3,5-tetrahydro-4H-pyrrolo[3,4-c]quinolin-4-one] | 2380 nM | 11.1 nM | 8.38 nM |  |
| CNC(=O)c1ccc(N2CCN(Cc3ccc4c(c3)[nH]c(=O)c3cn(C)cc34)CC2)c(C)n1 [Example 35, 7-((4-(2-methyl-6-(methylcarbamoyl)pyridin-3-yl)piperazin-1-yl)methyl)-2-methyl-2,5-dihydro-4H-pyrrolo[3,4-c]quinolin-4-one] | 584 nM | 8.24 nM | 2.92 nM |  |
| CNC(=O)c1ccc(N[C@@H]2CCN(Cc3ccc4c([nH]c(=O)c5occc54)c3F)C2)cn1 [Example 146, (R)-7-((3-((6-(methylcarbamoyl)pyridin-3-yl)amino)pyrrolidin-1-yl)methyl)-6-fluorofuro[2,3-c]quinolin-4(5H)-one] |  | > 100 nM |  |  |
| CNC(=O)c1ccc(N2CCN(Cc3ccc4c(c3)[nH]c(=O)c3cc[nH]c34)CC2)c(C)n1 [Example 23, 7-((4-(2-methyl-6-(methylcarbamoyl)pyridin-3-yl)piperazin-1-yl)methyl)-1,5-dihydro-4H-pyrrolo[3,2-c]quinolin-4-one] |  | 1.74 nM |  |  |

Source: patent publication US20250215013A1, “SUBSTITUTED TRICYCLIC COMPOUNDS AS PARP INHIBITORS AND THE USE THEREOF” (IMPACT THERAPEUTICS (SHANGHAI), INC., priority 2022, published 2025)
